Assay results reported in patent publication US20210017295A1, “BISPECIFIC BINDING AGENTS AND USES THEREOF” (MEMORIAL SLOAN KETTERING CANCER CENTER, priority 2018, published 2021).
Like-named read-outs stand apart in the source and are kept apart here.

Test system: s.c. HER2(+) BT-474 tumors
Type: in vivo, mouse
[1] = PRIT, CA 28% w/w 70 μg, 24 h p.i., mean ± SD
[2] = no PRIT, only ~16.8 MBq (90 pmol), 24 h p.i., mean ± SEM
[3] = optimized PRIT, 1.0 h p.i., mean ± SEM
[4] = optimized PRIT, 24 h p.i., mean ± SEM
[5] = optimized PRIT, 96 h p.i., mean ± SEM
[6] = optimized PRIT, 336 h p.i., mean ± SEM
[7] = optimized PRIT, […] p.i., mean ± SEM

**Q.** What does the source list for `Nc1ccc(CC2CN(CC(=O)[O-])CCN(CC(=O)[O-])CCN(CC(=O)[O-])CCN2CC(=O)[O-])cc1.[177Lu+3]` (centres unmarked) [^177Lu-DOTA-Bn]?
**A.** ^177Lu activity in Kidneys [1]: 0.75 ± 0.08 % IA/g; ^177Lu activity in Large Int. [1]: 0.19 ± 0.04 % IA/g; ^177Lu activity in Liver [1]: 0.33 ± 0.02 % IA/g; ^177Lu activity in Lungs [1]: 0.25 ± 0.05 % IA/g; ^177Lu activity in Muscle [1]: 0.08 ± 0.02 % IA/g; ^177Lu activity in Small Int. [1]: 0.07 ± 0.01 % IA/g; ^177Lu activity in Spleen [1]: 0.73 ± 0.18 % IA/g; ^177Lu activity in Stomach [1]: 0.05 ± 0.02 % IA/g; ^177Lu activity in Tumor [1]: 6.98 ± 3.15 % IA/g; ^177Lu activity in Blood [2]: 0.002±0.00 % IA/g; ^177Lu activity in Kidneys [2]: 0.38±0.01 % IA/g; ^177Lu activity in Liver [2]: 0.04 ± 0.01 % IA/g; ^177Lu activity in Spleen [2]: 0.02 ± 0.00 % IA/g; ^177Lu activity in Tumor [2]: 0.07±0.01 % IA/g; ^177Lu activity in tumor, range (optimized PRIT, 1-24 h p.i.): 5-8 % IA/g; Tumor-to-tissue ratio, Blood [3]: 10.7 ± 1.3; Tumor-to-tissue ratio, Bone [3]: 37.3 ± 6.0; Tumor-to-tissue ratio, Heart [3]: 38.7 ± 6.7; Tumor-to-tissue ratio, Kidneys [3]: 5.7 ± 0.5; Tumor-to-tissue ratio, Large Int. [3]: 3.0 ± 0.5; Tumor-to-tissue ratio, Liver [3]: 8.7 ± 0.9; Tumor-to-tissue ratio, Lungs [3]: 16.6 ± 2.3; Tumor-to-tissue ratio, Muscle [3]: 35.7 ± 3.6; Tumor-to-tissue ratio, Small Int. [3]: 6.0 ± 1.5; Tumor-to-tissue ratio, Spleen [3]: 44.9 ± 6.3; Tumor-to-tissue ratio, Stomach [3]: 17.8 ± 4.6; ^177Lu activity in Blood [3]: 0.62 ± 0.06 % IA/g; ^177Lu activity in Bone [3]: 0.18 ± 0.03 % IA/g; ^177Lu activity in Heart [3]: 0.17 ± 0.03 % IA/g; ^177Lu activity in Kidneys [3]: 1.17 ± 0.02 % IA/g; ^177Lu activity in Large Int. [3]: 2.22 ± 0.37 % IA/g; ^177Lu activity in Liver [3]: 0.76 ± 0.06 % IA/g; ^177Lu activity in Lungs [3]: 0.40 ± 0.05 % IA/g; ^177Lu activity in Muscle [3]: 0.19 ± 0.01 % IA/g; ^177Lu activity in Small Int. [3]: 1.11 ± 0.27 % IA/g; ^177Lu activity in Spleen [3]: 0.15 ± 0.02 % IA/g; ^177Lu activity in Stomach [3]: 0.37 ± 0.09 % IA/g; ^177Lu activity in Tumor [3]: 6.65 ± 0.46 % IA/g; Tumor-to-tissue ratio, Blood [4]: 26.7±9.0; Tumor-to-tissue ratio, Bone [4]: 189.6 ± 46.7; Tumor-to-tissue ratio, Heart [4]: 105.3 ± 27.7; Tumor-to-tissue ratio, Kidneys [4]: 10.4±1.3; Tumor-to-tissue ratio, Large Int. [4]: 41.7 ± 5.4; Tumor-to-tissue ratio, Liver [4]: 28.3 ± 8.3; Tumor-to-tissue ratio, Lungs [4]: 38.7 ± 10.0; Tumor-to-tissue ratio, Muscle [4]: 118.5 ± 26.8; Tumor-to-tissue ratio, Small Int. [4]: 140.4 ± 22.8; Tumor-to-tissue ratio, Spleen [4]: 12.6 ± 4.5; Tumor-to-tissue ratio, Stomach [4]: 122.3 ± 17.1; Tumor-to-tissue ratio, Blood [5]: 63.6 ± 12.2; Tumor-to-tissue ratio, Bone [5]: 6.0 ± 1.7; Tumor-to-tissue ratio, Heart [5]: 42.4 ± 10.3; Tumor-to-tissue ratio, Kidneys [5]: 8.4 ± 1.7; Tumor-to-tissue ratio, Large Int. [5]: 31.8 ± 8.6; Tumor-to-tissue ratio, Liver [5]: 10.1 ± 2.6; Tumor-to-tissue ratio, Lungs [5]: 34.7 ± 8.8; Tumor-to-tissue ratio, Muscle [5]: 22.5 ± 8.7; Tumor-to-tissue ratio, Small Int. [5]: 44.0 ± 12.6; Tumor-to-tissue ratio, Spleen [5]: 12.9 ± 2.9; Tumor-to-tissue ratio, Stomach [5]: 57.3 ± 13.7; ^177Lu activity in Blood [5]: 0.04 ± 0.00 % IA/g; ^177Lu activity in Bone [5]: 0.38 ± 0.09 % IA/g; ^177Lu activity in Heart [5]: 0.05 ± 0.01 % IA/g; ^177Lu activity in Kidneys [5]: 0.27 ± 0.03 % IA/g; ^177Lu activity in Large Int. [5]: 0.07 ± 0.01 % IA/g; ^177Lu activity in Liver [5]: 0.23 ± 0.04 % IA/g; ^177Lu activity in Lungs [5]: 0.07 ± 0.01 % IA/g; ^177Lu activity in Muscle [5]: 0.10 ± 0.03 % IA/g; ^177Lu activity in Small Int. [5]: 0.05 ± 0.01 % IA/g; ^177Lu activity in Spleen [5]: 0.18 ± 0.02 % IA/g; ^177Lu activity in Stomach [5]: 0.04 ± 0.01 % IA/g; ^177Lu activity in Tumor [5]: 2.29±0.41 % IA/g; Tumor-to-tissue ratio, Blood [6]: 160.8 ± 30.3; Tumor-to-tissue ratio, Bone [6]: 10.0 ± 3.6; Tumor-to-tissue ratio, Heart [6]: 37.8 ± 7.7; Tumor-to-tissue ratio, Kidneys [6]: 3.8 ± 0.9; Tumor-to-tissue ratio, Large Int. [6]: 75.6 ± 26.4; Tumor-to-tissue ratio, Liver [6]: 3.7 ± 1.0; Tumor-to-tissue ratio, Lungs [6]: 29.2 ± 8.2; Tumor-to-tissue ratio, Muscle [6]: 64.3 ± 18.4; Tumor-to-tissue ratio, Small Int. [6]: 116.9 ± 30.0; Tumor-to-tissue ratio, Spleen [6]: 3.5 ± 0.9; Tumor-to-tissue ratio, Stomach [6]: 51.4 ± 12.4; ^177Lu activity in Blood [6]: 0.002 ± 0.00 % IA/g; ^177Lu activity in Bone [6]: 0.03 ± 0.01 % IA/g; ^177Lu activity in Heart [6]: 0.01 ± 0.00 % IA/g; ^177Lu activity in Kidneys [6]: 0.08 ± 0.01 % IA/g; ^177Lu activity in Large Int. [6]: 0.004 ± 0.00 % IA/g; ^177Lu activity in Liver [6]: 0.09 ± 0.02 % IA/g; ^177Lu activity in Lungs [6]: 0.01 ± 0.00 % IA/g; ^177Lu activity in Muscle [6]: 0.01 ± 0.00 % IA/g; ^177Lu activity in Small Int. [6]: 0.003 ± 0.00 % IA/g; ^177Lu activity in Spleen [6]: 0.09 ± 0.02 % IA/g; ^177Lu activity in Stomach [6]: 0.01 ± 0.00 % IA/g; ^177Lu activity in Tumor [6]: 0.32±0.06 % IA/g; approximate tumor clearance half-life (optimized PRIT, R^2=0.894): ~38.6 h; Tumor-to-tissue ratio, Blood [7]: 12.1 ± 1.5; Tumor-to-tissue ratio, Bone [7]: 37.5 ± 4.3; Tumor-to-tissue ratio, Heart [7]: 37.5 ± 5.2; Tumor-to-tissue ratio, Kidneys [7]: 5.2 ± 0.5; Tumor-to-tissue ratio, Large Int. [7]: 1.6 ± 0.3; Tumor-to-tissue ratio, Liver [7]: 12.6 ± 1.6; Tumor-to-tissue ratio, Lungs [7]: 13.5 ± 1.6; Tumor-to-tissue ratio, Muscle [7]: 25.8 ± 5.1; Tumor-to-tissue ratio, Small Int. [7]: 10.6 ± 3.7; Tumor-to-tissue ratio, Spleen [7]: 14.9 ± 1.8; Tumor-to-tissue ratio, Stomach [7]: 23.6 ± 7.7; ^177Lu activity in Blood [7]: 0.41 ± 0.04 % IA/g; ^177Lu activity in Bone [7]: 0.13 ± 0.01 % IA/g; ^177Lu activity in Heart [7]: 0.13 ± 0.02 % IA/g; ^177Lu activity in Kidneys [7]: 0.95 ± 0.05 % IA/g; ^177Lu activity in Large Int. [7]: 3.18 ± 0.52 % IA/g; ^177Lu activity in Liver [7]: 0.39 ± 0.04 % IA/g; ^177Lu activity in Lungs [7]: 0.37 ± 0.03 % IA/g; ^177Lu activity in Muscle [7]: 0.19 ± 0.04 % IA/g; ^177Lu activity in Small Int. [7]: 0.47 ± 0.16 % IA/g; ^177Lu activity in Spleen [7]: 0.33 ± 0.03 % IA/g; ^177Lu activity in Stomach [7]: 0.21 ± 0.07 % IA/g; ^177Lu activity in Tumor [7]: 4.95 ± 0.34 % IA/g
